Reference: US20200069805A1, “PHARMACEUTICAL COMPOSITIONS WITH SYNCHRONIZED SOLUBILIZER RELEASE” (Lipocine Inc., priority 2003, published 2020)
Values after ≈ are worked out from the molar mass of the structure shown.

Columns and labels:
[1] = cited from earlier work
[2] = immediate release tablet dosage form; high fat meal; cited from earlier work
[3] = Equilibrium aqueous solubility of cilostazol in simulated intestinal fluid with solubilizers; format: physicochemical
Method: Solutions of simulated intestinal fluid without enzyme (USP 26, pH 6.8) were prepared over a range of solubilizer concentrations. Excess cilostazol was added and equilibrated with gentle mixing at controlled temperature (37±0.5° C.). The aqueous solutions with excess drug were then filtered ([…] nominal pore size) and the clear filtrate was diluted and assayed by HPLC for cilostazol concentrations.

| Structure (SMILES) | equilibrium solubility of the acid addition HCl salt [1] | pKa [1] | water solubility [1] | aqueous solubility at low pH ([1]; low pH, limited by relatively insoluble hydrochloric acid addition salt) | AUC increase [2] | Cmax increase [2] | solubility enhancement of cilostazol ([3]; Cremphor RH40 at 0.05% w/v) | solubility enhancement of cilostazol ([3]; Cremphor RH40 at 1% w/v) | increase in solubility of cilostazol over its intrinsic aqueous solubility ([3]; d-a-tocopherol polyethylene glycol 1000 succinate at 0.05% w/v) | increase in solubility of cilostazol over its intrinsic aqueous solubility ([3]; d-a-tocopherol polyethylene glycol 1000 succinate at 1% w/v) | solubility ([3]; simulated intestinal fluid without enzyme (USP 26), fassgf or other biorelevant, thermodynamic from solid, SIF without enzyme pH 6.8, 37 °C, no solubilizer, read-out: intrinsic solubility of cilostazol) |
| --- | --- | --- | --- | --- | --- | --- | --- | --- | --- | --- | --- |
| COc1ccccc1OCCNCC(O)COc1cccc2[nH]c3ccccc3c12 (centres unmarked) [Carvedilol] | about 1 mg/ml | about 7.6 | less than 0.001 mg/ml | less than 1 mg/ml |  |  |  |  |  |  |  |
| O=C1CCc2cc(OCCCCc3nnnn3C3CCCCC3)ccc2N1 [cilostazol] |  |  |  |  | about 25% | about 90% | ~30% | ~5 fold | ~60% | ~10 fold | 6.5 µg/mL (≈ 17.6 µM) |
